Measured values taken from patent publication US6384019B1, “Gemcitabine derivatives” (Norsk Hydro ASA, priority 1997, dated 2002).
“And” between values parts separate entries of the source, which are not always exact repeats. Equal entries are not always repeated. Where two headings read alike, the source gives them in different places.

What was measured:
[1] = tested on: subline C26G; test: Cytotoxicity, continuous drug exposure 72 hours, SRB assay; format: cell-based, murine; details: 72 hours continuous exposure, read-out: IC50 cytotoxicity C2G-G
Text: (§1) The cytoxicity activity of Gemcitabine-N^4-elaidic amide and Gemcitabine-5′-elaidic ester were investigated in 2 pairs of rodent and human tumour cell lines, each consisting of a parent line and a subline either resistant or cross-resistant to Gemcitabine.
(§2) The cell lines were the human ovarian tumour line A2780 and subline AG6000 which is resistant to Gemcitabine and has a deficiency of deoxycytidine kinase, and the murine colon tumour line C26A and the subline C26G with no altered deoxycytidine kinase but a 10-fold decrease in thymidine kinase I. The cytotoxicity of each compound was evaluated following continuous drug exposure for 72 hours. The cell numbers were determined by SRB assay, and percentage growth inhibition was calculated for each tumour line as IC50 value, given in μM, that is the concentration of the compound giving rise to a 50% growth inhibition compared to control.

[2] = tested on: CEM cells; test: Cytostatic activity in CEM cells with and without nucleoside transport modifiers; format: cell-based; details: for Rise in IC50 with the addition of NT inhibitors: with versus without NT inhibitors
Experimental: The cytostatic activity of gemcitabine and gemcitabine-5′-elaidic acid ester in CEM cells was determined with and without the nucleoside transport modifiers Nitrobenzylthioinosine (NBMPR) or Persantine (Pyridamole). […] With the addition of NT inhibitors, there is a ten-fold rise in the IC50 gemcitabine values, while the IC50 gemcitabine-5′-elaidic acid ester is little affected (1.3-1.5 increase).

[3] = tested on: murine colon cancer Co-26; test: Co-26 inoculated intrasplenic to mice, intraperitoneal treatment; format: in vivo
Experimental: (§3) The anti tumour effect of Gemcitabine-N^4-elaidic amide or Gemcitabine-5′-elaidic ester were investigated in-vivo in mice in two different tumour types, both with single and repeated dosing
Balb/c female mice were inoculated with the murine colon cancer Co-26 in the spleen on day 0. In this model, tumours develop mainly in the liver. Intraperitoneal treatment was started on day 1. Single doses of the compounds were tested in comparison with Gemcitabine at single dose. Saline was used as control.
In parallel experiment, dosing was repeated on days 1-11

[4] = tested on: murine lymphatic leukaemia P 388 cells; test: P-388 ip in mice, single or repeated doses; format: in vivo
Text: as §3
B6D2F1 female mice were implanted with the murine lymphatic leukaemia P 388 cells intraperitoneally. Treatments were initiated on day 1 post implantation of cells intraperitoneally. […] Single dose treatment with Gemcitabine-5′-elaidic ester was effective with prolonged survival time and long term survivor observed compared to the same dose of Gemcitabine.

[5] = tested on: subline AG6000 (resistant to Gemcitabine, deficiency of deoxycytidine kinase); test: Cytotoxicity, continuous drug exposure 72 hours, SRB assay; format: cell-based, human
Text: as §1, §2

[6] = tested on: human ovarian tumour line A2780; test: as above; format: cell-based
Text: as §1, §2

[7] = tested on: murine colon tumour line C26A; test: as above; format: cell-based; details: 72 hours continuous exposure, read-out: IC50 cytotoxicity C26-A
Text: as §1, §2

[8] = cited from earlier work
[9] = Co-26, repeated dosing days 1-11, 1 mg/kg
[10] = Co-26, repeated dosing days 1-11, 4 mg/kg
[11] = Co-26, single dose ip day 1, 75 mg/kg
[12] = Co-26, single dose ip day 1, 100 mg/kg
[13] = P-388, repeated dose days 1-4, 15 Mg/kg
[14] = P-388, repeated dose days 1-11, 1 mg/kg
[15] = P-388, repeated dose days 1-11, 4 mg/kg
[16] = P-388, single dose treatment, 75 mg/kg
[17] = P-388, single dose treatment, 100 mg/kg
[18] = Co-26, single dose ip day 1, 25 mg/kg
[19] = P-388, repeated dose days 1-4, 1 Mg/kg
[20] = P-388, repeated dose days 1-4, 4 Mg/kg

Compound | Rise in IC50 with the addition of NT inhibitors ([2]; CEM cells) | Long term survivors (>46 d) [3, 9] | Mean survival time T/C [3, 9] | Toxic deaths [3, 9] | Long term survivors (>46 d) [3, 10] | Mean survival time T/C [3, 10] | Toxic deaths [3, 10] | Long term survivors (>35 d) [3, 11] | Mean survival time T/C [3, 11] | Toxic deaths [3, 11] | Long term survivors (>35 d) [3, 12] | Mean survival time T/C [3, 12] | Toxic deaths [3, 12] | Long term survivors (>45 d) [4, 14] | Mean survival time T/C [4, 14] | Toxic deaths [4, 14] | Long term survivors (>45 d) [4, 15] | Mean survival time T/C [4, 15] | Toxic deaths [4, 15] | Long term survivors (>35 d) [4, 16] | further results
Nc1ccn([C@@H]2O[C@H](CO)[C@@H](O)C2(F)F)c(=O)n1 [Gemcitabine, 2′,2′-difluoro-deoxycytidine] | ten-fold rise |  2/8 | 170.6% | ⅛ |  0/8 | toxic |  8/8 |  2/7 | 132.8% |  0/7 |  4/7 | 116.2% |  0/7 |  0/6 | 178.8% |  0/6 |  0/6 | 71.9% | 6/6 |  0/6 | IC50 ([1]; Mus musculus): 7.5 nM; IC50 ([2]; Homo sapiens, CCRF-CEM, read-out: IC50 Persantine 4 μg/ml): 1260 ± 40 nM; IC50 ([2]; Homo sapiens, CCRF-CEM, CEM cells, NBMPR 100 μM, read-out: IC50 NBMPR 100 μM): 1110 ± 80 nM; IC50 ([2]; Homo sapiens, CCRF-CEM, CEM cells, no inhibitor, read-out: IC50 No inhibitor): 110 ± 10 nM; Long term survivors (>35 d) [4, 13]:  0/6; Mean survival time T/C [4, 13]: 58.0%; Toxic deaths [4, 13]: all animals died of toxicity and  6/6; Mean survival time T/C [4, 16]: 138.9%; Toxic deaths [4, 16]:  0/7; IC50 ([5]; Homo sapiens, AG6000, 72 hours continuous exposure): 100000 nM; IC50 ([6]; Homo sapiens, A2780, 72 hours continuous exposure): 0.5 nM; IC50 ([7]; Mus musculus): 5.5 nM; Plasma concentration that inhibits the anti-cancer effect (saturation of the phosphorylation mechanism) [8]: above 35 μM; Plasma concentration with optimal effect [8]: about 20 μM
CCCCCCCC/C=C/CCCCCCCC(=O)OC[C@H]1O[C@@H](n2ccc(N)nc2=O)C(F)(F)[C@@H]1O [Gemcitabine-5′-elaidic ester, Elaidic Acid (5′)-Gemcitabine Ester] | 1.3-1.5 fold | ⅛ | 150.6% |  0/8 | ⅜ | 166.9% |  2/8 |  1/7 | 128.6% |  0/7 |  4/7 | 100.1% |  0/7 |  0/6 | 317.0% |  0/6 |  2/6 | 220.6% |  0/6 | ⅙ | IC50 [1]: 0.5 nM; IC50 ([2]; CEM cells, NBMPR 100 μM, read-out: IC50 NBMPR 100 μM): 72 ± 34 nM; IC50 ([2]; CEM cells, Persantine 4 μg/ml, read-out: IC50 Persantine 4 μg/ml): 65 ± 23 nM; IC50 ([2]; CEM cells, no inhibitor, read-out: IC50 No inhibitor): 47 ± 6 nM; Potency relative to the mother drug in the "resistant" situation ([2]; CEM cells, with NT inhibitors, versus gemcitabine): 15-20 fold; Mean survival time T/C [4, 16]: 186.3%; Toxic deaths [4, 16]:  0/6; Long term survivors (>35 d) [4, 17]:  0/6; Mean survival time T/C [4, 17]: 138.9%; Toxic deaths [4, 17]:  0/6; IC50 ([5]; 72 hours continuous exposure): 100000 nM; IC50 ([6]; 72 hours continuous exposure): < 0.1 nM; IC50 [7]: 0.3 nM
CCCCCCCC/C=C/CCCCCCCC(=O)Nc1ccn(C2OC(CO)C(O)C2(F)F)c(=O)n1 (centres unmarked) [Gemcitabine-N^4-elaidic amide, Elaidic Acid (N^4)-Gemcitabine Amide] | – |  2/8 | 155% |  0/8 | ⅛ | 185.6% |  0/8 | – | – | – | – | – | – | ⅙ | 172.5% |  0/6 |  0/6 | 215.7% |  0/6 | – | IC50 [1]: < 0.1 nM; Long term survivors (>35 d) [3, 18]: 5/8 and ⅝; Mean survival time T/C [3, 18]: 103.7%; Toxic deaths [3, 18]: ⅛; Long term survivors (>35 d) [4, 19]:  2/6; Mean survival time T/C [4, 19]: 178%; Toxic deaths [4, 19]:  0/6; Long term survivors (>35 d) [4, 20]: ⅙; Mean survival time T/C [4, 20]: 183%; Toxic deaths [4, 20]:  0/6; IC50 ([5]; 72 hours continuous exposure): 35000 nM; IC50 ([6]; 72 hours continuous exposure): < 0.1 nM; IC50 [7]: < 0.1 nM
